# Target: T1, XIAP-BIR3 (Homo sapiens, UniProt P98170)
# T1 construct: 40 nM of XIAP-BIR3 for 15 min at RT
# Assay: XIAP BIR-3 fluorescence polarization binding assay
# Settings: 5 nM AbuRPF-K(5-Fam)-NH2, 40 nM XIAP-BIR3, 15 min RT, pH 7.5; read-out: KD Range
# Experimental: Following incubation, the polarization values (mP) were measured on a Victor^2V using a 485 nm excitation filter and a 520 nm emission filter. IC50 values were determined from the plot using nonlinear least-squares analysis using GraphPad Prism.
# T1 sequence (P98170 241-356 limits assumed): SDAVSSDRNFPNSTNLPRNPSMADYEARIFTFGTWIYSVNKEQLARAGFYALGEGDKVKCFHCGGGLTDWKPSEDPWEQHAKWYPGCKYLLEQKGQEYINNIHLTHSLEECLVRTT
row,SMILES,Kd
1,C[C@H](N)C(=O)N[C@H](C(=O)N1CCC[C@H]1Cc1c(-c2ccc(-c3[nH]c4cc(F)ccc4c3C[C@@H]3CCCN3C(=O)[C@@H](NC(=O)[C@H](C)N)C3CCCCC3)cc2)[nH]c2cc(F)ccc12)C1CCCCC1 [Entry 39],< 0.1 µM
2,CN[C@@H](C)C(=O)N[C@H](C(=O)N1C[C@@H](O)C[C@H]1Cc1c(-c2ccc(-c3[nH]c4ccc(F)cc4c3C[C@@H]3C[C@H](O)CN3C(=O)[C@@H](NC(=O)[C@H](C)NC)C(C)C)cc2)[nH]c2ccc(F)cc12)C(C)C [Entry 40],0.1 to 1 µM
3,CN[C@@H](C)C(=O)N[C@H](C(=O)N1C[C@@H](O)C[C@H]1Cc1c(-c2ccc(-c3[nH]c4ccc(F)cc4c3C[C@@H]3C[C@H](O)CN3C(=O)[C@@H](NC(=O)[C@H](C)NC)C(C)(C)C)cc2)[nH]c2ccc(F)cc12)C(C)(C)C [Entry 41],< 0.1 µM
4,CN[C@@H](C)C(=O)N[C@H](C(=O)N1CCC[C@H]1Cc1c(-c2ccc(-c3c(C[C@@H]4CCCN4C(=O)[C@@H](NC(=O)[C@H](C)N)[C@@H](C)O)c4ccc(F)cc4n3CCO)cc2)n(CCO)c2cc(F)ccc12)[C@@H](C)O [Entry 43],< 0.1 µM
5,CN[C@@H](C)C(=O)N[C@H](C(=O)N1CCC[C@H]1Cc1c(-c2ccc(-c3c(C[C@@H]4CCCN4C(=O)[C@@H](NC(=O)[C@H](C)NC)[C@@H](C)O)c4ccc(F)cc4n3CCO)cc2)n(CCO)c2cc(F)ccc12)[C@@H](C)O [Entry 44],< 0.1 µM
6,CN[C@@H](C)C(=O)N[C@H](C(=O)N1CCC[C@H]1Cc1c(-c2ccc(-c3c(C[C@@H]4CCCN4C(=O)[C@@H](NC(=O)[C@H](C)N)[C@@H](C)O)c4ccc(F)cc4n3CCOC(C)=O)cc2)n(CCOC(C)=O)c2cc(F)ccc12)[C@@H](C)O [Entry 45],< 0.1 µM
7,CN[C@@H](C)C(=O)N[C@H](C(=O)N1CCC[C@H]1Cc1c(-c2ccc(-c3c(C[C@@H]4CCCN4C(=O)[C@@H](NC(=O)[C@H](C)NC)C(C)C)c4ccc(F)cc4n3CCO)cc2)n(CCO)c2cc(F)ccc12)C(C)C [Entry 46],< 0.1 µM
8,CN[C@@H](C)C(=O)N[C@H](C(=O)N1CCC[C@H]1Cc1c(-c2ccc(-c3c(C[C@@H]4CCCN4C(=O)[C@@H](NC(=O)[C@H](C)NC)C(C)C)c4ccc(F)cc4n3CCOC(C)=O)cc2)n(CCOC(C)=O)c2cc(F)ccc12)C(C)C [Entry 47],< 0.1 µM
9,CN[C@@H](C)C(=O)N[C@H](C(=O)N1CCC[C@H]1Cc1c(-c2ccc(-c3c(C[C@@H]4CCCN4C(=O)[C@@H](NC(=O)[C@H](C)NC)C(C)(C)C)c4ccc(F)cc4n3CCOC(C)=O)cc2)n(CCOC(C)=O)c2cc(F)ccc12)C(C)(C)C [Entry 49],< 0.1 µM
10,CN[C@@H](C)C(=O)N[C@H](C(=O)N1CCC[C@H]1Cc1c(-c2ccc(-c3c(C[C@@H]4CCCN4C(=O)[C@@H](NC(=O)[C@H](C)NC)[C@@H](C)O)c4ccc(F)cc4n3CCOC)cc2)n(CCOC)c2cc(F)ccc12)[C@@H](C)O [Entry 50],< 0.1 µM
11,CN[C@@H](C)C(=O)N[C@H](C(=O)N1CCC[C@H]1Cc1c(-c2ccc(-c3c(C[C@@H]4CCCN4C(=O)[C@@H](NC(=O)[C@H](C)NC)C(C)(C)C)c4ccc(F)cc4n3CCOC)cc2)n(CCOC)c2cc(F)ccc12)C(C)(C)C [Entry 51],< 0.1 µM
12,CN[C@@H](C)C(=O)N[C@H](C(=O)N1CCC[C@H]1Cc1c(-c2ccc(-c3c(C[C@@H]4CCCN4C(=O)[C@@H](NC(=O)[C@H](C)NC)C(C)C)c4ccc(F)cc4n3CCOC)cc2)n(CCOC)c2cc(F)ccc12)C(C)C [Entry 52],< 0.1 µM
13,COCCn1c(-c2ccc(-c3c(C[C@@H]4CCCN4C(=O)[C@@H](NC(=O)[C@H](C)N)C(C)C)c4ccc(F)cc4n3CCOC)cc2)c(C[C@@H]2CCCN2C(=O)[C@@H](NC(=O)[C@H](C)N)C(C)C)c2ccc(F)cc21 [Entry 53],< 0.1 µM
14,CN[C@@H](C)C(=O)N[C@H](C(=O)N1CCC[C@H]1Cc1c(-c2ccc(-c3c(C[C@@H]4CCCN4C(=O)[C@@H](NC(=O)[C@H](C)NC)C(C)(C)C)c4cc(F)ccc4n3CCO)cc2)n(CCO)c2ccc(F)cc12)C(C)(C)C [Entry 54],< 0.1 µM
15,CN[C@@H](C)C(=O)N[C@H](C(=O)N1CCC[C@H]1Cc1c(-c2ccc(-c3c(C[C@@H]4CCCN4C(=O)[C@@H](NC(=O)[C@H](C)NC)C(C)C)c4cc(F)ccc4n3CCO)cc2)n(CCO)c2ccc(F)cc12)C(C)C [Entry 55],< 0.1 µM
16,CN[C@@H](C)C(=O)N[C@H](C(=O)N1CCC[C@H]1Cc1c(-c2ccc(-c3c(C[C@@H]4CCCN4C(=O)[C@@H](NC(=O)[C@H](C)NC)[C@@H](C)O)c4cc(F)ccc4n3CCO)cc2)n(CCO)c2ccc(F)cc12)[C@@H](C)O [Entry 56],< 0.1 µM
17,CN[C@@H](C)C(=O)N[C@H](C(=O)N1CCC[C@H]1Cc1c(-c2ccc(-c3c(C[C@@H]4CCCN4C(=O)[C@@H](NC(=O)[C@H](C)NC)C(C)C)c4ccc(F)cc4n3C)cc2)n(C)c2cc(F)ccc12)C(C)C [Entry 57],< 0.1 µM
18,CN[C@@H](C)C(=O)N[C@H](C(=O)N1CCC[C@H]1Cc1c(-c2ccc(-c3c(C[C@@H]4CCCN4C(=O)[C@@H](NC(=O)[C@H](C)NC)[C@@H](C)O)c4ccc(F)cc4n3C)cc2)n(C)c2cc(F)ccc12)[C@@H](C)O [Entry 58],< 0.1 µM
19,CN[C@@H](C)C(=O)N[C@H](C(=O)N1CCC[C@H]1Cc1c(-c2ccc(-c3c(C[C@@H]4CCCN4C(=O)[C@@H](NC(=O)[C@H](C)NC)C(C)(C)C)c4ccc(F)cc4n3C)cc2)n(C)c2cc(F)ccc12)C(C)(C)C [Entry 59],< 0.1 µM
20,CN[C@@H](C)C(=O)N[C@H](C(=O)N1CCC[C@H]1Cc1c(-c2ccc(-c3c(C[C@@H]4CCCN4C(=O)[C@@H](NC(=O)[C@H](C)NC)C(C)C)c4ccc(F)cc4n3CCOC(C)=O)cc2)[nH]c2cc(F)ccc12)C(C)C [Entry 64],< 0.1 µM
21,CN[C@@H](C)C(=O)N[C@H](C(=O)N1CCC[C@H]1Cc1c(-c2ccc(-c3c(C[C@@H]4CCCN4C(=O)[C@@H](NC(=O)[C@H](C)NC)C(C)C)c4ccc(F)cc4n3CCO)cc2)[nH]c2cc(F)ccc12)C(C)C [Entry 67],< 0.1 µM
22,CN[C@H](C)C(=O)N[C@H](C(=O)N1CCC[C@H]1Cc1c(-c2ccc(-c3c(C[C@@H]4CCCN4C(=O)[C@@H](NC(=O)[C@@H](C)NC)C(C)(C)C)c4ccc(F)cc4n3CCO)cc2)[nH]c2cc(F)ccc12)C(C)(C)C [Entry 71],0.1 to 1 µM

# Same assay, conditions: Example 4 series; read-out: KD Range
row,SMILES,Kd
1,CNC(C)C(=O)NC(C(=O)N1CCCC1Cc1c(-c2[nH]c3cc(F)ccc3c2CC2CCCN2C(=O)C(NC(=O)C(C)NC)C(C)O)[nH]c2cc(F)ccc12)C(C)O (stereo not drawn) [Entry 72],< 0.1 µM
2,CN[C@@H](C)C(=O)N[C@H](C(=O)N1CCC[C@H]1Cc1c(-c2[nH]c3cc(F)ccc3c2C[C@@H]2CCCN2C(=O)[C@@H](NC(=O)[C@H](C)NC)C(C)C)[nH]c2cc(F)ccc12)C(C)C [Entry 73],< 0.1 µM
3,CN[C@@H](C)C(=O)N[C@H](C(=O)N1CCC[C@H]1Cc1c(-c2[nH]c3cc(F)ccc3c2C[C@@H]2CCCN2C(=O)[C@@H](NC(=O)[C@H](C)N)C(C)C)[nH]c2cc(F)ccc12)C(C)C [Entry 74],< 0.1 µM
4,CN[C@@H](C)C(=O)N[C@H](C(=O)N1CCC[C@H]1Cc1c(-c2[nH]c3ccc(F)cc3c2C[C@@H]2CCCN2C(=O)[C@@H](NC(=O)[C@H](C)NC)C(C)C)[nH]c2ccc(F)cc12)C(C)C [Entry 75],< 0.1 µM
5,CN[C@@H](C)C(=O)NCC(=O)N1CCC[C@H]1Cc1c(-c2[nH]c3cc(F)ccc3c2C[C@@H]2CCCN2C(=O)CNC(=O)[C@H](C)NC)[nH]c2cc(F)ccc12 [Entry 76],0.1 to 1 µM
6,CN[C@@H](C)C(=O)N[C@@H](C)C(=O)N1CCC[C@H]1Cc1c(-c2[nH]c3cc(F)ccc3c2C[C@@H]2CCCN2C(=O)[C@H](C)NC(=O)[C@H](C)NC)[nH]c2cc(F)ccc12 [Entry 77],0.1 to 1 µM
7,CNC(C)C(=O)NC(C(=O)N1CCCC1Cc1c(-c2[nH]c3cc(F)ccc3c2CC2CCCN2C(=O)C(NC(=O)C(C)NC)C(C)O)[nH]c2cc(F)ccc12)C(C)O (stereo not drawn) [Entry 78],< 0.1 µM
8,CC[C@H](NC(=O)[C@H](C)NC)C(=O)N1CCC[C@H]1Cc1c(-c2[nH]c3cc(F)ccc3c2C[C@@H]2CCCN2C(=O)[C@H](CC)NC(=O)[C@H](C)NC)[nH]c2cc(F)ccc12 [Entry 79],< 0.1 µM
9,CNC(C)C(=O)NC(C(=O)N1CCCC1Cc1c(-c2[nH]c3ccc(F)cc3c2CC2CCCN2C(=O)C(NC(=O)C(C)NC)C(C)O)[nH]c2ccc(F)cc12)C(C)O (stereo not drawn) [Entry 80],< 0.1 µM
10,CC(C)[C@H](NC(=O)CN)C(=O)N1CCC[C@H]1Cc1c(-c2[nH]c3cc(F)ccc3c2C[C@@H]2CCCN2C(=O)[C@@H](NC(=O)CN)C(C)C)[nH]c2cc(F)ccc12 [Entry 81],0.1 to 1 µM
11,CCC(C)[C@H](NC(=O)[C@H](C)NC)C(=O)N1CCC[C@H]1Cc1c(-c2[nH]c3ccc(F)cc3c2C[C@@H]2CCCN2C(=O)[C@@H](NC(=O)[C@H](C)NC)C(C)CC)[nH]c2ccc(F)cc12 (stereo partly drawn) [Entry 82],< 0.1 µM
12,CN[C@@H](C)C(=O)N[C@H](C(=O)N1CCC[C@H]1Cc1c(-c2[nH]c3ccc(F)cc3c2C[C@@H]2CCCN2C(=O)[C@@H](NC(=O)[C@H](C)NC)C2CCCCC2)[nH]c2ccc(F)cc12)C1CCCCC1 [Entry 83],< 0.1 µM
13,CN[C@@H](C)C(=O)N[C@H](C(=O)N1CCC[C@H]1Cc1c(-c2[nH]c3cc(F)ccc3c2C[C@@H]2CCCN2C(=O)[C@@H](NC(=O)[C@H](C)NC)C(C)(C)C)[nH]c2cc(F)ccc12)C(C)(C)C [Entry 84],< 0.1 µM
14,CN[C@@H](C)C(=O)N[C@H](C(=O)N1CCC[C@H]1Cc1c(-c2[nH]c3cc(F)ccc3c2C[C@@H]2CCCN2C(=O)[C@@H](NC(=O)[C@H](C)NC)C2CCCCC2)[nH]c2cc(F)ccc12)C1CCCCC1 [Entry 85],< 0.1 µM
15,CNC(C)C(=O)NC(C(=O)N1CC(O)CC1Cc1c(-c2[nH]c3cc(F)ccc3c2CC2CC(O)CN2C(=O)C(NC(=O)C(C)NC)C(C)O)[nH]c2cc(F)ccc12)C(C)O (stereo not drawn) [Entry 86],< 0.1 µM
16,CN[C@@H](C)C(=O)N[C@H](C(=O)N1C[C@@H](O)C[C@H]1Cc1c(-c2[nH]c3cc(F)ccc3c2C[C@@H]2C[C@H](O)CN2C(=O)[C@@H](NC(=O)[C@H](C)NC)C(C)C)[nH]c2cc(F)ccc12)C(C)C [Entry 87],< 0.1 µM
17,CNC(C)C(=O)NC(C(=O)N1CC(O)CC1Cc1c(-c2[nH]c3cc(F)ccc3c2CC2CC(O)CN2C(=O)C(NC(=O)C(C)NC)C(C)OC)[nH]c2cc(F)ccc12)C(C)OC (stereo not drawn) [Entry 88],< 0.1 µM

# From patent US9187490B2, “Dimeric IAP inhibitors” (TetraLogic Pharmaceuticals Corporation, priority 2005, dated 2015)
